Results on five molecules are retold here after patent US11261187B2, “Compounds and methods for targeting HSP90” (Duke University, priority 2016, dated 2022).

Data set [1] deals with MDA-MB-468 cells. Description: Confocal imaging of eHsp90 puncta in probe-treated tumor cells. It is filed as cell-based. On the procedure:
(§1) Cells were plated on uncoated 18-mm round coverslips in 12 well plates at 150,000 cells/well and were allowed to adhere overnight. 100, in a stock solution in DMSO, was diluted in serum-free/phenol red-free DMEM. After drug incubation, the cells were washed twice with ice-cold PBS, fixed with 1% PFA in PBS for 10 min, and stained with 5 μg/mL wheat germ agglutinin-488 (WGA-488, Invitrogen, Waltham, Mass.) and either Hoescht or DAPI. The coverslips were washed and mounted onto microscope slides using FluorSave mounting reagent (Millipore, Darmstadt, Germany). Slides were imaged on a Leica SP5 confocal microscope.
(§2) Images were analyzed for fluorescence and puncta using ImageJ software using a non-biased, high-throughput macro. In brief, cells were selected using an expanded selection from the DAPI channel. The regions of interest were then masked, a watershed filter was applied to split adjacent cells into separate cells, and the regions of interest were applied to the 100 channel to measure fluorescence and puncta. High resolution confocal stacks were deconvolved with Hyugen's Deconvolution Software or AiryScan.
Using a standard fluorescence curve, the concentration within the puncta of 100 was estimated to be 4.66±0.05 μM. […]

Data set [2] has as its system MDA-MB-468 cells. Description: 100 internalization assay in MDA-MB-468 cells. In kind it is cell-based. The settings on record: MDA-MB-468 cells; dose and time series. The protocol:
as §1, §2
(§3) To analyze the internalization of eHsp90 in transformed cells, the 4T1 cell model was utilized.

The test system of data set [3] is MMTV-neu spontaneous mammary tumor. The data set is described as follows: Cryo-imaging and histology of MMTV-neu spontaneous mammary tumor mice. It is filed as in vivo, mouse. The source says:
[…] Slices of 5-μm thickness were cut and placed on slides to dry overnight. Slides were then deparaffinized and either H&E stained or rehydrated and stained with DAPI before mounting. Slides were imaged at 20× magnification on a Zeiss Axio Imager widefield fluorescence microscope equipped with a color camera.
To investigate the tumor specificity and eHsp90 internalization in a more relevant model of human breast cancer, the MMTV-neu spontaneous mammary tumor mouse model was used (FIGS. 4c-d). […] Following cryoslicing, each 40 μm slice was imaged for fluorescence and brightfield. […] Previous studies have reported the autofluorescence of Leydig cells in the testes due to the presence of a lipophilic pigment.

Data set [4] in a line: Storage stability by LC/MS at a later date. In kind it is physicochemical. The note with it: primarily to the hydride. On the procedure: Compound 116 (50 mg, 33 μmol), hexamethylditin (14 mg, 9 μL, 42 μmol) and tetrakis triphenylphosphine palladium(0) (1 mg 1 μmol) were slurried in dioxane (1 mL), purged with nitrogen for 30 m and heated to 100° C. for an hour. The reaction was mixture was adsorbed onto silica gel and chromatographed (50 g C18, 0.2% formic acid to 100% MeOH) to give product 118 (13.9 mg, 27%) as a blue solid. LC/MS gives a single peak with a little shoulder with m/z=785.8 [M+2H]^2+ as part of a cluster typical of Tin compounds.

Data set [5] relates to eHsp90. Description: Competition of fluorescent probe binding to eHsp90 on cells by untethered Hsp90 inhibitors. In kind it is cell-based. The protocol:
Cells were plated on uncoated 18-mm round coverslips in 12 well plates at 150,000 cells/well and were allowed to adhere overnight. 100, in a stock solution in DMSO, was diluted in serum-free/phenol red-free DMEM. […] The coverslips were washed and mounted onto microscope slides using FluorSave mounting reagent (Millipore, Darmstadt, Germany). Slides were imaged on a Leica SP5 confocal microscope.
as §2, §3

The subject of data set [6] is eHsp90. The data set is described as follows: Live imaging and tracking of puncta (lattice light sheet microscope). It is filed as cell-based. The note with it: 10 μM 100 competed with 100 μM HS-10. On the procedure:
Live imaging was also performed on cells treated with 100 alone, 101, or 100 and HS-10, and spots were tracked over time to investigate any differences in puncta movement and size. […] Puncta detected with 100 were competed with HS-10 (FIG. 3d).

Another data set deals with non-malignant cells. Description: Puncta formation on non-malignant cells. It is filed as cell-based. On the procedure: Using a standard fluorescence curve, the concentration within the puncta of 100 was estimated to be 4.66±0.05 μM. Based on puncta volume and a ratio of 1:1 for 100:Hsp90 (as each monomer of Hsp90 has a single ATP-binding site), the larger puncta are estimated to contain 2659±105 monomers of eHsp90. Accumulation of the puncta intracellularly is time-dependent (FIG. 3b). Formation of the puncta is eHsp90-dependent and not related to any physiochemical properties of the probes themselves. […] This diffusion may be a result of exchange with intracellular ATP or the degradation of the internalized eHsp90. Probe aggregates alone would not be expected to spontaneously dissipate without the addition of some form of organic solvent.

Regarding `CCOCCCNCc1ccc(C(=C\C=C2\N(CCCCS(=O)(=O)O)c3ccccc3C2(C)C)/C=C/C2=[N+](CCCCS(=O)(=O)[O-])c3ccccc3C2(C)C)cc1` [Compound 19, 4-(2-((1E,3Z)-5-((E)-3,3-dimethyl-1-(4-sulfobutyl)indolin-2-ylidene)-3-(4-(((3-ethoxypropyl)amino)methyl)phenyl)penta-1,3-dien-1-yl)-3,3-dimethyl-3H-indol-1-ium-1-yl)butane-1-sulfonate], the “puncta formation when applied to cells” value in the data set on MDA-MB-468 cells [1] is on record as “does not form puncta”.

For `Cc1nn(-c2ccc(C(=O)N(C)C)c(NCCCOCCOCCOCCOCCOCCCNCc3ccc(C(=C\C=C4\N(CCCCS(=O)(=O)O)c5ccccc5C4(C)C)/C=C/C4=[N+](CCCCS(=O)(=O)[O-])c5ccccc5C4(C)C)cc3)c2)c2c1C(=O)CC(C)(C)C2` [Compound 101, 4-(2-((1E,3Z)-5-((E)-3,3-dimethyl-1-(4-sulfobutyl)indolin-2-ylidene)-3-(4-(21-((2-(dimethylcarbamoyl)-5-(3,6,6-trimethyl-4-oxo-4,5,6,7-tetrahydro-1H-indazol-1-yl)phenyl)amino)-6,9,12,15,18-pentaoxa-2-azahenicosyl)phenyl)penta-1,3-dien-1-yl)-3,3-dimethyl-3H-indol-1-ium-1-yl)butane-1-sulfonate], the uptake of probe entry in the data set with MDA-MB-468 cells [2] is given as “only weakly internalized at higher concentrations”. For the same molecule, in data set [3] (25 nmol i.v., 6 hours, cryoslicing and histology), the “probe uptake in MMTV-neu mammary tumor” value is given as “No uptake was observed”. Also, the “specific drug fluorescence in duct epithelium of tumor cells (histology)” value in data set [3] (FIG. 5, serial sections, DAPI/Cy5) is “not in the 101-treated mouse”.

Turning to `Cc1nn(-c2ccc(C(N)=O)c(NCCCOCCOCCOCCOCCOCCCN(Cc3ccc(C(=C\C=C4\N(CCCCS(=O)(=O)O)c5ccccc5C4(C)C)/C=C/C4=[N+](CCCCS(=O)(=O)[O-])c5ccccc5C4(C)C)cc3)Cc3ccc[c]([Sn]([CH3])([CH3])[CH3])c3)c2)c2c1C(=O)CC(C)(C)C2` [Compound 118, 4-(2-((E,3Z)-3-(4-(21-((2-carbamoyl-5-(3,6,6-trimethyl-4-oxo-4,5,6,7-tetrahydro-1H-indazol-1-yl)phenyl)amino)-2-(3-(trimethylstannyl)benzyl)-6,9,12,15,18-pentaoxa-2-azahenicosyl)phenyl)-5-((E)-3,3-dimethyl-1-(4-sulfobutyl)indolin-2-ylidene)penta-1,3-dien-1-yl)-3,3-dimethyl-3H-indol-1-ium-1-yl)butane-1-sulfonate], the stability on storage entry in data set [4] is “significant decomposition”.

Turning to `Cc1nn(-c2ccc(C(N)=O)c(N[C@H]3CC[C@H](O)CC3)c2)c2c1C(=O)CC(C)(C)C2` [HS-10], in the data set on eHsp90 [5] (MDA-MB-468 cells, 100 at 25 μM, 45 min, 1 μM HS-10 or 10 μM PUH71), the “competition of binding of probe 100 to eHsp90” value is recorded as “competed”. Besides, the “blocking of binding of 100 and HS-27 to eHsp90” value with eHsp90 [5] (untethered Hsp90 inhibitors) is reported as “blocked”. Moreover, in the data set on eHsp90 [6], the “competition of puncta detected with 100” value is reported as “competed”.

As for `Cc1nn(-c2ccc(C(N)=O)c(NCCCOCCOCCOCCOCCOCCCNC(=S)Nc3ccc4c(c3)C(=O)OC43c4ccc(O)cc4Oc4cc(O)ccc43)c2)c2c1C(=O)CC(C)(C)C2` [HS-27, reference compound], the “puncta formation when applied to cells” value in the data set on MDA-MB-468 cells [1] is “forms puncta”. Moreover, the “puncta formation on non-malignant cells” value in the data set on non-malignant cells was “puncta do not form”.
